Data on twelve molecules can be found in patent US20060173048A1, “Imidazole derivatives” (priority 2005, published 2006).

The target of one data set is T1, rat mGlu2 receptor (Rattus norvegicus, UniProt P31421).
T1 construct: expressed in transfected cells; host or cells: CHO cells, stably transfected (G-418 selection); membranes were prepared from them
Briefly: [3H]-LY354740 binding on mGlu2 transfected CHO cell membranes. The settings on record: displacement of 10 nM [3H]-LY354740, membranes of CHO cells transfected with rat mGlu2, room temperature, 1 hour. The source says: [^3H]-LY354740 Binding on mGlu2 Transfected CHO Cell Membranes. Transfection and Cell Culture
cDNA encoding the rat mGlu2 receptor protein in pBluescript II was subcloned into the eukaryotic expression vector pcDNA I-amp from Invitrogen Ltd (Paisley, UK). This vector construct (pcD1mGR^2) was co-transfected with a psvNeo plasmid encoding the gene for neomycin resistance, into CHO cells by a modified calcium phosphate method described by Chen & Okayama (1988). The cells were maintained in Dulbecco's Modified Eagle medium with reduced L-glutamine (2 mM final concentration) and 10% dialysed foetal calf serum from Gibco-Invitrogen (Carlsbad, Calif., USA). Selection was made in the presence of G-418 (1000 ug/ml final) and […]. Clones were identified by reverse transcription of 5 μg total RNA, followed by PCR using mGlu2 receptor specific primers 5′-[…]-3′ and 540 -[…]-3′ in 60 mM Tris HCl (pH 10), 15 mM (NH4)2SO4, 2 mM MgCl2, 25 units/ml Taq Polymerase with 30 cycles annealing at 60° C. for 1 min., extention at 72° C. for 30 s, and 1 min. 95° C. denaturation.
Cells, cultured as above, were harvested and washed three times with cold PBS and frozen at −80° C. The pellet was resuspended in cold 20 mM HEPES-NaOH buffer containing 10 mM EDTA (pH 7.4), and homogenised with a polytron (Kinematica, AG, Littau, Switzerland) for 10 s at 10 000 rpm. After centrifugation for 30 min. at 4° C., the pellet was washed once with the same buffer, and once with cold 20 mM HEPES-NaOH buffer containing 0.1 mM EDTA, (pH 7.4). Protein content was measured using the micro BCA method from Pierce-Perbio (Rockford, Ill., USA) using bovine serum albumin as standard.
After thawing, the membranes were resuspended in cold 50 mM Tris-HCl buffer containing 2 mM MgCl2 (pH 7) (binding buffer). The final concentration of the membranes in the assays was 25 μg protein/ml. Inhibition experiments were performed with membranes incubated with 10 nM [^3H]-LY354740 at room temperature, for 1 hour, in presence of various concentrations of the compound to be tested. Following the incubations, membranes were filtered onto Whatmann GF/B glass fiber filters and washed 5 times with cold binding buffer. Non specific binding was measured in the presence of 10 μM DCG IV. After transfer of the filters into plastic vials containing 10 ml of Ultima-gold scintillation fluid from Perkin-Elmer (Boston, Mass., USA), the radioactivity was measured by liquid scintillation in a Tri-Carb 2500 TR counter (Packard, Zürich, Switzerland).
The inhibition curves were fitted with a four parameter logistic equation giving IC50 values, and Hill coefficients.

T1 sequence (P31421 19-872): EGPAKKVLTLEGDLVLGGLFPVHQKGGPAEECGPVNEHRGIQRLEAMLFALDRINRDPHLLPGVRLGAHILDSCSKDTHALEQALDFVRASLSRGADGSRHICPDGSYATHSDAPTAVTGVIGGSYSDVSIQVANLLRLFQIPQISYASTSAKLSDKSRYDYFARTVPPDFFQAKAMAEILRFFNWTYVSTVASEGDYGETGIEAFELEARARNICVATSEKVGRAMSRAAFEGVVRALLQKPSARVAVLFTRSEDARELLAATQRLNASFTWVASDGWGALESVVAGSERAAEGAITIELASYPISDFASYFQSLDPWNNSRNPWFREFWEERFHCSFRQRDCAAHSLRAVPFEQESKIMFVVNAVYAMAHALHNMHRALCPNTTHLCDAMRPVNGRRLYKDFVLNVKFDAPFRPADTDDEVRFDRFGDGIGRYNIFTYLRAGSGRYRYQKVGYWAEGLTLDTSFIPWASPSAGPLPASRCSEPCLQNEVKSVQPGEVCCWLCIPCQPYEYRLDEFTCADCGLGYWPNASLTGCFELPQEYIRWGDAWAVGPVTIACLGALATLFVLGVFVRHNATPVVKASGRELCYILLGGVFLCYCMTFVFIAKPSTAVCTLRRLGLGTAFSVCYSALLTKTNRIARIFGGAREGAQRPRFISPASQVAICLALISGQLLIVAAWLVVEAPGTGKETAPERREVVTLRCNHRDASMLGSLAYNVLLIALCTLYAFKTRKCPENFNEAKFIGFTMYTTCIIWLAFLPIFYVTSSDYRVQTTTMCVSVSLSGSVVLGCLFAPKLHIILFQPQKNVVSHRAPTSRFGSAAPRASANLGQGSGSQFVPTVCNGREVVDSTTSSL

`CCn1c(-c2c(Cl)cccc2Cl)nc(-c2ccncc2)c1-c1ccc(C)cc1` [Example 11, 4-[2-(2,6-Dichloro-phenyl)-1-ethyl-5-(4-methyl-phenyl)-1H-imidazol-4-yl]-pyridine] had a melting point of 191 to 193 °C. Further, at rat mGlu2 receptor, the Ki is 13 nM.
The like results for `CCn1c(C(O)(C2CC2)C2CC2)nc(-c2ccncc2)c1-c1ccc(Cl)cc1` [Example 43, [5-(4-Chloro-phenyl)-1-ethyl-4-pyridin-4-yl-1H-imidazol-2-yl]-dicyclopropyl-methanol] were, in that order, 185 to 188 °C and 111 nM.
On rat mGlu2 receptor, `Cc1cc(C)c(-c2nc(-c3ccncc3)c(-c3ccc(Cl)cc3)n2CCO)c(C)c1` [Example 26, 2-[5-(4-Chloro-phenyl)-4-pyridin-4-yl-2-(2,4,6-trimethyl-phenyl)-imidazol-1-yl]-ethanol] had a Ki of 63 nM.
Consider `CCn1c(C(O)(C2CCCCC2)C2CCCCC2)nc(-c2ccncc2)c1-c1ccc(Cl)cc1` [Example 47, [5-(4-Chloro-phenyl)-1-ethyl-4-pyridin-4-yl-1H-imidazol-2-yl]-dicyclohexyl-methanol], for which the melting point was 221 to 224 °C. In addition, on rat mGlu2 receptor, the Ki amounted to 18 nM.
In the same order, the values of `CCCC(CCC)c1nc(-c2ccncc2)c(-c2ccc(Cl)cc2)n1CC` [Example 37, 4-[5-(4-Chloro-phenyl)-1-ethyl-2-(1-propyl-butyl)-1H-imidazol-4-yl]-pyridine] are 152 to 155 °C and 49 nM.
Consider `Cn1c(-c2c(Cl)cccc2Cl)nc(-c2ccncc2)c1-c1ccc(Cl)cc1` [Example 3, 4-[5-(4-Chloro-phenyl)-2-(2,6-dichloro-phenyl)-1-methyl-1H-imidazol-4-yl]-pyridine], for which the melting point is 257 to 260 °C. Moreover, the Ki on rat mGlu2 receptor turned out to be 7 nM.
In turn, `CCCn1c(-c2c(Cl)cccc2Cl)nc(-c2ccncc2)c1-c1ccc(C)cc1` [Example 50, 4-[2-(2,6-Dichloro-phenyl)-1-propyl-5-(4-methyl-phenyl)-1H-imidazol-4-yl]-pyridine] showed a melting point of 200 to 201 °C.
Turning to `FC(F)(F)Cn1c(-c2c(Cl)cccc2Cl)nc(-c2ccncc2)c1-c1ccc(Cl)cc1` [Example 25, 4-[5-(4-Chloro-phenyl)-2-(2,6-dichloro-phenyl)-1-(2,2,2-trifluoro-ethyl)-1H-imidazol-4-yl]-pyridine], the melting point was in the range of 213 to 214 °C.
`Clc1ccc(-c2c(-c3ccncc3)nc(-c3c(Cl)cccc3Cl)n2C2CC2)cc1` [Example 27, 4-[5-(4-Chloro-phenyl)-1-cyclopropyl-2-(2,6-dichloro-phenyl)-1H-imidazol-4-yl]-pyridine] gave a melting point of 210 to 211 °C. On rat mGlu2 receptor, this molecule returned a Ki of 21 nM.
Regarding `Cc1ccc(-c2c(-c3ccncc3)nc(-c3c(Cl)cccc3Cl)n2C)cc1` [Example 1, 4-[2-(2,6-Dichloro-phenyl)-1-methyl-5-(4-methyl-phenyl)-1H-imidazol-4-yl]-pyridine], the melting point lay in the range of 214 to 217 °C.
Molecule `C=CCn1c(-c2c(Cl)cccc2Cl)nc(-c2ccncc2)c1-c1ccc(C)cc1` [Example 19, 4-[1-Allyl-2-(2,6-dichloro-phenyl)-5-(4-methyl-phenyl)-1H-imidazol-4-yl]-pyridine] returned a melting point of 147 to 149 °C. The molecule also displayed a Ki at rat mGlu2 receptor of 34 nM.
Take `CCn1c(-c2c(Cl)cccc2Cl)nc(-c2ccncc2)c1-c1ccc(Cl)cc1` [Example 5, 4-[5-(4-Chloro-phenyl)-2-(2,6-dichloro-phenyl)-1-ethyl-1H-imidazol-4-yl]-pyridine]: the melting point lay within 193 to 196 °C.
